According to ChEMBL document CHEMBL1201861, “Genomics of Drug Sensitity in Cancer screening data, Wellcome Trust Sanger Institute”:

What was measured:
Test in all cases: cells
COLO-824 = format: functional, cell-based, Homo sapiens; conditions: Homo sapiens, COLO-824
Description: SANGER: Inhibition of human COLO-824 cell growth in a cell viability assay.

D-263MG = format: functional, cell-based, Homo sapiens; conditions: Homo sapiens, D-263MG
Description: SANGER: Inhibition of human D-263MG cell growth in a cell viability assay.

DB = format: functional, cell-based; conditions: Homo sapiens
Description: SANGER: Inhibition of human DB cell growth in a cell viability assay.

DOHH-2 = format: functional, cell-based; conditions: Homo sapiens;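 further: growth inhibition of human DOHH-2 cells, read out with a cell viability assay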
Description: SANGER: Inhibition of human DOHH-2 cell growth in a cell viability assay.

DOK = format: functional, cell-based, Homo sapiens; conditions: Homo sapiens, DOK;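 further: cell viability assay read-out, values reflect inhibition of cell growth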
Description: SANGER: Inhibition of human DOK cell growth in a cell viability assay.

EM-2 = format: functional, cell-based; conditions: Homo sapiens;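 further: growth inhibition of EM-2 cells, read out with a cell viability assay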
Description: SANGER: Inhibition of human EM-2 cell growth in a cell viability assay.

ES6 = format: functional, cell-based, Homo sapiens; conditions: Homo sapiens, ES6;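 further: growth inhibition of human ES6 cells, read out with a cell viability assay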
Description: SANGER: Inhibition of human ES6 cell growth in a cell viability assay.

EW-16 = format: functional, cell-based, Homo sapiens; conditions: Homo sapiens, EW-16;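 further: growth inhibition of human EW-16 cells, read out as cell viability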
Description: SANGER: Inhibition of human EW-16 cell growth in a cell viability assay.

EOL1 = format: functional, cell-based; conditions: Homo sapiens;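 further: growth inhibition of EoL-1 cells, read out by a cell viability assay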
Description: SANGER: Inhibition of human EoL-1-cell cell growth in a cell viability assay.

GAMG = format: functional, cell-based, Homo sapiens; conditions: Homo sapiens, GAMG;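 further: cell growth inhibition measured by a viability assay in the GAMG human cell line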
Description: SANGER: Inhibition of human GAMG cell growth in a cell viability assay.

GR-ST = format: functional, cell-based; conditions: Homo sapiens
Description: SANGER: Inhibition of human GR-ST cell growth in a cell viability assay.

HCC1569 = format: functional, cell-based, Homo sapiens; conditions: Homo sapiens, HCC1569;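 further: growth inhibition of human HCC1569 cells, read out with a cell viability assay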
Description: SANGER: Inhibition of human HCC1569 cell growth in a cell viability assay.

HCC 2998 = format: functional, cell-based, Homo sapiens; conditions: Homo sapiens, HCC 2998;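 further: growth inhibition of human HCC2998 cells, measured with a cell viability read-out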
Description: SANGER: Inhibition of human HCC2998 cell growth in a cell viability assay.

HOP-92 = format: functional, cell-based, Homo sapiens; conditions: Homo sapiens, HOP-92;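 further: cell viability readout, with IC50 reflecting inhibition of HOP-92 cell growth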
Description: SANGER: Inhibition of human HOP-92 cell growth in a cell viability assay.

HT = format: functional, cell-based; conditions: Homo sapiens
Description: SANGER: Inhibition of human HT cell growth in a cell viability assay.

KINGS-1 = format: functional, cell-based, Homo sapiens; conditions: Homo sapiens, KINGS-1;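 further: cell viability assay measuring suppression of KINGS-1 cell growth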
Description: SANGER: Inhibition of human KINGS-1 cell growth in a cell viability assay.

KM12 = format: functional, cell-based, Homo sapiens; conditions: Homo sapiens, KM12;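 further: KM12 cell growth inhibition, read out with a cell viability assay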
Description: SANGER: Inhibition of human KM12 cell growth in a cell viability assay.

KY821 = format: functional, cell-based; conditions: Homo sapiens;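 further: growth inhibition of human KY821 cells, read out by a cell viability assay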
LS-1034 = format: functional, cell-based, Homo sapiens; conditions: Homo sapiens, LS-1034
Description: SANGER: Inhibition of human LS-1034 cell growth in a cell viability assay.

MHH-NB-11 = format: functional, cell-based, Homo sapiens; conditions: Homo sapiens, MHH-NB-11;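 further: growth inhibition of human MHH-NB-11 cells, read out by a cell viability assay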
Description: SANGER: Inhibition of human MHH-NB-11 cell growth in a cell viability assay.

MIA PaCa-2 = format: functional, cell-based, Homo sapiens; conditions: Homo sapiens, MIA PaCa-2;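 further: growth inhibition of MIA PaCa-2 cells, read out with a cell viability assay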
Description: SANGER: Inhibition of human MIA-PaCa-2 cell growth in a cell viability assay.

MKN-7 = format: functional, cell-based, Homo sapiens; conditions: Homo sapiens, MKN-7;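 further: growth inhibition of MKN-7 cells, read out with a cell viability assay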
Description: SANGER: Inhibition of human MKN7 cell growth in a cell viability assay.

NB6 = format: functional, cell-based, Homo sapiens; conditions: Homo sapiens, NB6;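 further: growth inhibition of NB6 cells, read out by a cell viability assay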
Description: SANGER: Inhibition of human NB6 cell growth in a cell viability assay.

NCI-H2030 = format: functional, cell-based, Homo sapiens; conditions: Homo sapiens, NCI-H2030;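 further: growth inhibition of human NCI-H2030 cells, read out by a cell viability assay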
Description: SANGER: Inhibition of human NCI-H2030 cell growth in a cell viability assay.

NCI-H2052 = format: functional, cell-based, Homo sapiens; conditions: Homo sapiens, NCI-H2052;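 further: growth inhibition of NCI-H2052 cells, read out with a cell viability assay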
Description: SANGER: Inhibition of human NCI-H2052 cell growth in a cell viability assay.

NCI-H727 = format: functional, cell-based, Homo sapiens; conditions: Homo sapiens, NCI-H727;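 further: growth inhibition of human NCI-H727 cells, read out with a cell viability assay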
Description: SANGER: Inhibition of human NCI-H727 cell growth in a cell viability assay.

NCI-N87 = format: functional, cell-based, Homo sapiens; conditions: Homo sapiens, NCI-N87;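 further: growth inhibition of human NCI-N87 cells, read out with a cell viability assay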
Description: SANGER: Inhibition of human NCI-N87 cell growth in a cell viability assay.

NH-12 = format: functional, cell-based, Homo sapiens; conditions: Homo sapiens, NH-12;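 further: growth inhibition of NH-12 cells, read out with a cell viability assay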
Description: SANGER: Inhibition of human NH-12 cell growth in a cell viability assay.

OMC-1 = format: functional, cell-based, Homo sapiens; conditions: Homo sapiens, OMC-1;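 further: growth inhibition of the OMC-1 cell line, measured by a cell viability assay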
Description: SANGER: Inhibition of human OMC-1 cell growth in a cell viability assay.

RS4-11 = format: functional, cell-based; conditions: Homo sapiens;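 further: growth inhibition of RS4-11 cells, read out by a cell viability assay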
Description: SANGER: Inhibition of human RS4-11 cell growth in a cell viability assay.

SBC-5 = format: functional, cell-based, Homo sapiens; conditions: Homo sapiens, SBC-5;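 further: cell viability assay read-out, IC50 is the concentration that inhibits growth of the cells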
Description: SANGER: Inhibition of human SBC-5 cell growth in a cell viability assay.

SK-MES-1 = format: functional, cell-based, Homo sapiens; conditions: Homo sapiens, SK-MES-1;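 further: growth inhibition of human SK-MES-1 cells, read out with a cell viability assay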
Description: SANGER: Inhibition of human SK-MES-1 cell growth in a cell viability assay.

SN12C = format: functional, cell-based, Homo sapiens; conditions: Homo sapiens, SN12C;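 further: growth inhibition of human SN12C cells, measured by a cell viability assay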
Description: SANGER: Inhibition of human SN12C cell growth in a cell viability assay.

SW1710 = format: functional, cell-based, Homo sapiens; conditions: Homo sapiens, SW1710;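 further: growth inhibition of SW1710 cells, determined with a cell viability assay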
Description: SANGER: Inhibition of human SW1710 cell growth in a cell viability assay.

SW780 = format: functional, cell-based, Homo sapiens; conditions: Homo sapiens, SW780;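 further: growth inhibition of the cells, read out with a cell viability assay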
Description: SANGER: Inhibition of human SW780 cell growth in a cell viability assay.

SW837 = format: functional, cell-based, Homo sapiens; conditions: Homo sapiens, SW837;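 further: growth inhibition of SW837 cells, determined with a cell viability assay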
Description: SANGER: Inhibition of human SW837 cell growth in a cell viability assay.

SW 954 = format: functional, cell-based, Homo sapiens; conditions: Homo sapiens, SW 954;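 further: growth inhibition of SW954 human cancer cells, read out as cell viability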
Description: SANGER: Inhibition of human SW954 cell growth in a cell viability assay.

SW 962 = format: functional, cell-based, Homo sapiens; conditions: Homo sapiens, SW 962;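 further: growth inhibition of human SW962 cells, read out by a cell viability assay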
Description: SANGER: Inhibition of human SW962 cell growth in a cell viability assay.

647-V = format: functional, cell-based, Homo sapiens; conditions: Homo sapiens, 647-V;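 further: growth inhibition of 647-V cells, read out with a cell viability assay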
Description: SANGER: Inhibition of human 647-V cell growth in a cell viability assay.

A 172 = format: functional, cell-based, Homo sapiens; conditions: Homo sapiens, A 172;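 further: growth inhibition of A172 cells, measured with a cell viability readout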
A2058 = format: functional, cell-based; conditions: Homo sapiens;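 further: reduction of A2058 cell growth, read out with a viability assay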
Description: SANGER: Inhibition of human A2058 cell growth in a cell viability assay.

A704 = format: functional, cell-based, Homo sapiens; conditions: Homo sapiens, A704;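 further: growth inhibition of human A704 cells, read out with a cell viability assay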
Description: SANGER: Inhibition of human A704 cell growth in a cell viability assay.

AM-38 = format: functional, cell-based, Homo sapiens; conditions: Homo sapiens, AM-38;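 further: growth inhibition of AM-38 cells of human origin, read out by a cell viability assay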
BXPC-3 = format: functional, cell-based, Homo sapiens; conditions: Homo sapiens, BXPC-3;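 further: growth inhibition of human BxPC-3 cells, read out by a cell viability assay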
Description: SANGER: Inhibition of human BxPC-3 cell growth in a cell viability assay.

TE-11 = format: functional, cell-based, Homo sapiens; conditions: Homo sapiens, TE-11;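 further: growth inhibition of human TE-11 cells, read out by a cell viability assay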
Description: SANGER: Inhibition of human TE-11 cell growth in a cell viability assay.

TE-6 = format: functional, cell-based, Homo sapiens; conditions: Homo sapiens, TE-6;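 further: growth inhibition of TE-6 cells, read out with a cell viability assay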
Description: SANGER: Inhibition of human TE-6 cell growth in a cell viability assay.

TGBC1TKB = format: functional, cell-based, Homo sapiens; conditions: Homo sapiens, TGBC1TKB;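 further: growth inhibition of TGBC1TKB cells, read out by a cell viability assay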
Description: SANGER: Inhibition of human TGBC1TKB cell growth in a cell viability assay.

U2OS = format: functional, cell-based, Homo sapiens, U-2-OS; conditions: Homo sapiens, U2OS;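 further: growth inhibition of human U-2-OS cells, determined with a cell viability assay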
Description: SANGER: Inhibition of human U-2-OS cell growth in a cell viability assay.

UMC-11 = format: functional, cell-based, Homo sapiens; conditions: Homo sapiens, UMC-11;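 further: growth inhibition of UMC-11 cells, read out with a cell viability assay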
Description: SANGER: Inhibition of human UMC-11 cell growth in a cell viability assay.

no-10 = format: functional, cell-based, Homo sapiens; conditions: Homo sapiens;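 further: growth inhibition of no-10 cells, read out with a cell viability assay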
Description: SANGER: Inhibition of human no-10 cell growth in a cell viability assay.

COLO-320-HSR = format: functional, cell-based; conditions: Homo sapiens;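 further: growth inhibition of COLO-320-HSR cells, determined with a cell viability assay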
Description: SANGER: Inhibition of human COLO-320-HSR cell growth in a cell viability assay.

COLO-679 = format: functional, cell-based, Homo sapiens; conditions: Homo sapiens, COLO-679
Description: SANGER: Inhibition of human COLO-679 cell growth in a cell viability assay.

Structure (SMILES): C=CCc1cccc(/C=N/NC(=O)CN2CCN(Cc3ccccc3)CC2)c1O [PAC-1]
- IC50 (COLO-824): > 2.56 µM
- IC50 (D-263MG): > 2.56 µM
- IC50 (DB): > 2.56 µM
- IC50 (DOHH-2): > 2.56 µM
- IC50 (DOK): > 2.56 µM
- IC50 (EM-2): > 2.56 µM
- IC50 (ES6): 1.49 µM
- IC50 (EW-16): > 2.56 µM
- IC50 (EOL1): > 2560 nM
- IC50 (GAMG): > 2.56 µM
- IC50 (GR-ST): > 2.56 µM
- IC50 (HCC1569): > 2.56 µM
- IC50 (HCC 2998): 1180 nM
- IC50 (HOP-92): > 2.56 µM
- IC50 (HT): > 2.56 µM
- IC50 (KINGS-1): > 2.56 µM
- IC50 (KM12): > 2.56 µM
- IC50 (KY821): > 2.56 µM
- IC50 (LS-1034): > 2.56 µM
- IC50 (MHH-NB-11): > 2.56 µM
- IC50 (MIA PaCa-2): > 2.56 µM
- IC50 (MKN-7): > 2.56 µM
- IC50 (NB6): > 2.56 µM
- IC50 (NCI-H2030): > 2.56 µM
- IC50 (NCI-H2052): > 2.56 µM
- IC50 (NCI-H727): 2 µM
- IC50 (NCI-N87): > 2.56 µM
- IC50 (NH-12): 987 nM
- IC50 (OMC-1): > 2.56 µM
- IC50 (RS4-11): > 2.56 µM
- IC50 (SBC-5): > 2.56 µM
- IC50 (SK-MES-1): > 2.56 µM
- IC50 (SN12C): > 2.56 µM
- IC50 (SW1710): > 2.56 µM
- IC50 (SW780): > 2.56 µM
- IC50 (SW837): > 2.56 µM
- IC50 (SW 954): > 2.56 µM
- IC50 (SW 962): > 2.56 µM
- IC50 (647-V): > 2.56 µM
- IC50 (A 172): > 2.56 µM
- IC50 (A2058): > 2.56 µM
- IC50 (A704): > 2560 nM
- IC50 (AM-38): > 2.56 µM
- IC50 (BXPC-3): 2090 nM
- IC50 (TE-11): > 2.56 µM
- IC50 (TE-6): > 2.56 µM
- IC50 (TGBC1TKB): > 2.56 µM
- IC50 (U2OS): > 2.56 µM
- IC50 (UMC-11): > 2.56 µM
- IC50 (no-10): > 2.56 µM
- IC50 (COLO-320-HSR): > 2.56 µM
- IC50 (COLO-679): 803 nM

Structure (SMILES): Cc1ccc(Nc2nccc(N(C)c3ccc4c(C)n(C)nc4c3)n2)cc1S(N)(=O)=O [PAZOPANIB]
- IC50 (COLO-824): > 8 µM
- IC50 (D-263MG): > 8 µM
- IC50 (DB): > 8 µM
- IC50 (DOHH-2): > 8 µM
- IC50 (DOK): > 8 µM
- IC50 (EM-2): > 8 µM
- IC50 (ES6): 6.03 µM
- IC50 (EW-16): > 8 µM
- IC50 (EOL1): < 31.2 nM
- IC50 (GAMG): 6.18 µM
- IC50 (GR-ST): > 8 µM
- IC50 (HCC1569): > 8 µM
- IC50 (HCC 2998): > 8000 nM
- IC50 (HOP-92): > 8 µM
- IC50 (HT): > 8 µM
- IC50 (KINGS-1): > 8 µM
- IC50 (KM12): > 8 µM
- IC50 (KY821): > 8 µM
- IC50 (LS-1034): > 8 µM
- IC50 (MHH-NB-11): > 8 µM
- IC50 (MIA PaCa-2): 5.6 µM
- IC50 (MKN-7): > 8 µM
- IC50 (NB6): > 8 µM
- IC50 (NCI-H2030): > 8 µM
- IC50 (NCI-H2052): > 8 µM
- IC50 (NCI-H727): 5.41 µM
- IC50 (NCI-N87): > 8 µM
- IC50 (NH-12): > 8000 nM
- IC50 (OMC-1): > 8 µM
- IC50 (RS4-11): > 8 µM
- IC50 (SBC-5): > 8 µM
- IC50 (SK-MES-1): 6.87 µM
- IC50 (SN12C): > 8 µM
- IC50 (SW1710): 4.47 µM
- IC50 (SW780): > 8 µM
- IC50 (SW837): > 8 µM
- IC50 (SW 954): > 8 µM
- IC50 (SW 962): > 8 µM
- IC50 (647-V): > 8 µM
- IC50 (A 172): 3.74 µM
- IC50 (A2058): > 8 µM
- IC50 (A704): 1600 nM
- IC50 (AM-38): > 8 µM
- IC50 (BXPC-3): > 8000 nM
- IC50 (TE-11): > 8 µM
- IC50 (TE-6): > 8 µM
- IC50 (TGBC1TKB): > 8 µM
- IC50 (U2OS): > 8 µM
- IC50 (UMC-11): > 8 µM
- IC50 (no-10): > 8 µM
- IC50 (COLO-320-HSR): > 8 µM
- IC50 (COLO-679): > 8000 nM
